From patent US9029337B2, “Modulation of factor 7 expression” (Isis Pharmaceuticals, Inc., priority 2007, dated 2015)
Strand notation (5' to 3'): a small letter for the sugar, then the base; units joined by * are phosphorothioate-linked, units joined directly phosphodiester-linked; [ ] holds rarer units or linkages, { } end groups; capitals alone tell only the bases. e = 2'-O-(2-methoxyethyl) (MOE); [5mC] = 5-methylcytosine; d = 2'-deoxy (DNA)

These substances were tested on human Factor 7 mRNA (assay: Antisense inhibition of human Factor 7 mRNA in HepB3 cells, 50 nM antisense oligonucleotide, lipofectin). Conditions: Table 1, 50 nM, lipofectin, approximately 24 hours, relative to untreated control cells.
Format: cell-based
Procedure: Antisense oligonucleotides targeted to a Factor 7 nucleic acid were tested for their effects on Factor 7 mRNA in vitro. Cultured HepB3 cells at a density of 4,000 cells per well were transfected using lipofectin reagent with 50 nM antisense oligonucleotide. After a treatment period of approximately 24 hours, RNA was isolated from the cells and Factor 7 mRNA levels were measured by real-time RT-PCR, as described herein. Factor 7 mRNA levels were adjusted according to total RNA content as measured by RIBOGREEN®. Results are presented as percent inhibition of Factor 7, relative to untreated control cells.
(§1) Antisense oligonucleotides targeted to a Factor 7 nucleic acid were designed and tested for their effects on Factor 7 mRNA in vitro. Certain antisense oligonucleotides from Table 3 were also retested for their effects on Factor 7 mRNA in vitro. Cultured HepB3 cells at a density of 4,000 cells per well were transfected using lipofectin reagent with 50 nM antisense oligonucleotide. After a treatment period of approximately 24 hours, RNA was isolated from the cells and Factor 7 mRNA levels were measured by real-time RT-PCR, as described herein. Human Factor 7 primer probe set RTS 2927 was used to measure mRNA levels. Factor 7 mRNA levels were adjusted according to total RNA content as measured by RIBOGREEN®. Results are presented as percent inhibition of Factor 7, relative to untreated control.
as §1, with “tested” for “tested for their effects on Factor 7 mRNA in vitro. Certain antisense oligonucleotides from Table 3 were also retested”
These gapmers were designed by creating gapmers shifted slightly upstream and downstream (i.e. “microwalk”) of the original gapmers from Table 7. Gapmers were also created with various motifs, e.g. 5-10-5 MOE, 3-14-3 MOE, and 2-13-5 MOE. These gapmers were tested in vitro. Cultured HepB3 cells at a density of 4,000 cells per well were transfected using lipofectin reagent with 50 nM antisense oligonucleotide. After a treatment period of approximately 24 hours, RNA was isolated from the cells and Factor 7 mRNA levels were measured by real-time RT-PCR. Factor 7 mRNA levels were adjusted according to total RNA content, as measured by RIBOGREEN®. Results are presented as percent inhibition of Factor 7, relative to untreated control cells.

Substance | % Inhibition
407946 (antisense eT*e[5mC]*e[5mC]*eA*eA*dA*dA*dA*dT*dG*dA*dA*dT*d[5mC]*dA*eT*eG*eG*eG*e[5mC]) [compound 407946] | 5%
407891 (antisense e[5mC]*eA*eT*eG*eG*dA*d[5mC]*dT*dT*dG*dA*dG*dG*d[5mC]*dA*e[5mC]*eA*e[5mC]*eT*eG) [compound 407891] | 66%
407958 (antisense eG*e[5mC]*e[5mC]*eG*eT*dG*d[5mC]*dT*dT*dG*d[5mC]*d[5mC]*dG*dG*dA*eG*eT*e[5mC]*eT*eG) [compound 407958] | 58%
407944 (antisense e[5mC]*e[5mC]*eA*eG*eT*dG*dG*dG*dT*dG*dG*d[5mC]*dA*dG*dG*e[5mC]*eA*e[5mC]*e[5mC]*eA) [compound 407944] | 59%
407640 (antisense eG*e[5mC]*eA*eT*eG*dA*dG*d[5mC]*dT*dT*dT*dT*dG*d[5mC]*dA*eG*e[5mC]*e[5mC]*eA*e[5mC]) [compound 407640] | 79%
407626 (antisense eT*e[5mC]*eT*eT*eG*dA*dT*dT*dT*dT*dG*dT*d[5mC]*dG*dA*eA*eA*e[5mC]*eA*eG) [compound 407626] | 82%
407923 (antisense e[5mC]*eA*eG*eG*eA*d[5mC]*dA*dG*dT*dT*d[5mC]*dG*dA*d[5mC]*dG*e[5mC]*eA*eG*e[5mC]*e[5mC]) [compound 407923] | 76%

Same assay, conditions: Table 6, 50 nM, lipofectin, approximately 24 hours

Substance | % Inhibition
422270 (antisense eT*eG*dA*dG*d[5mC]*dG*d[5mC]*dG*dG*dA*dA*dG*dA*dA*dG*eG*eG*eA*e[5mC]*eG) [compound 422270] | 15%

Same assay, conditions: gapmers targeted to nucleobases 4868 to 4899 of SEQ ID NO: 1, Table 8

Substance | % Inhibition of human Factor 7 mRNA levels
422148 (antisense eG*eG*eA*eG*e[5mC]*d[5mC]*d[5mC]*dG*dA*dG*dT*dT*d[5mC]*dT*dG*e[5mC]*eA*eG*eG*eA) [compound 422148] | 57%

Same assay, conditions: lipofectin, 50 nM antisense oligonucleotide, approximately 24 hours, Factor 7 mRNA by real-time RT-PCR (RTS 2927), relative to untreated control

Substance | % Inhibition
416492 (antisense eG*eG*eA*eT*e[5mC]*dA*dT*dT*d[5mC]*dT*dG*dG*d[5mC]*d[5mC]*d[5mC]*eT*eG*eA*eG*e[5mC]) [compound 416492] | 13%
416444 (antisense eA*e[5mC]*eA*eG*eT*dT*d[5mC]*d[5mC]*dG*dG*d[5mC]*d[5mC]*d[5mC]*dT*d[5mC]*eG*eA*eA*eG*eG) [compound 416444] | 24%
416432 (antisense eA*eG*e[5mC]*eA*e[5mC]*dT*dG*d[5mC]*dT*d[5mC]*d[5mC]*dT*d[5mC]*d[5mC]*dT*eT*eG*e[5mC]*eA*e[5mC]) [compound 416432] | 44%
416500 (antisense e[5mC]*eT*eG*eA*eA*d[5mC]*dA*d[5mC]*d[5mC]*d[5mC]*d[5mC]*dA*dG*d[5mC]*dT*eG*eA*eG*eA*eG) [compound 416500] | 1%
416497 (antisense e[5mC]*eG*eT*eG*e[5mC]*dA*dG*dG*dT*dG*dT*dT*dA*dA*dG*eG*eT*eG*eT*eG) [compound 416497] | 0%
416435 (antisense e[5mC]*e[5mC]*e[5mC]*eA*eT*d[5mC]*dA*d[5mC]*dT*dG*dT*dA*dA*dG*dA*eA*eA*eT*e[5mC]*e[5mC]) [compound 416435] | 3%
416539 (antisense eG*eA*e[5mC]*eA*eG*dA*dG*d[5mC]*d[5mC]*dT*dG*dA*dG*d[5mC]*dT*eT*eG*eG*e[5mC]*eA) [compound 416539] | 53%

Same assay, conditions: oligonucleotides targeted to nucleobases 11830 to 11869 of SEQ ID NO: 1 (Table 9)

Substance | % Inhibition (human Factor 7 mRNA levels)
422101 (antisense eT*eG*eA*eG*eG*dA*dG*dA*d[5mC]*dA*dA*dT*dG*dG*dT*e[5mC]*eA*eG*eG*eG) [compound 422101] | 42%
422091 (antisense eT*eG*eG*eT*e[5mC]*dA*dG*dG*dG*d[5mC]*dT*dG*dG*dT*dT*eT*eT*eG*eG*eA) [compound 422091] | 42%

Same assay, conditions: oligonucleotides targeted to nucleobases 15098 to 15122 of SEQ ID NO: 1 (Table 12)

Substance | % Inhibition (human Factor 7 mRNA levels)
422284 (antisense e[5mC]*eA*d[5mC]*dA*d[5mC]*dA*dT*dG*dG*dA*dG*dT*d[5mC]*dA*dG*e[5mC]*eA*eT*e[5mC]*eG) [compound 422284] | 43%
